Assay results: publication PMC8704709, “Improved Anticancer Activities of a New Pentafluorothio-Substituted Vorinostat-Type Histone Deacetylase Inhibitor” (Pharmaceuticals, 2021)

System: DU145 cells
Test: Unspecific cytotoxicity (LDH release)
Type: cell-based, human
Conditions: 1–10 µM, 3 and 24 h
Protocol: To exclude unspecific cytotoxicity as the driving mode of action for antiproliferative effects, the release of lactate dehydrogenase (LDH) from DU145 cells was determined after 3 h and 24 h of treatment using the Cytotoxicity Detection Kit PLUS LDH (Roche Diagnostics GmbH, Mannheim, Germany). The assay was performed as described earlier. Cytotoxicity was determined by subtracting the percentage of LDH release into the supernatant under control conditions of those from treated samples. Measurements were performed in duplicate in n = 3 independent experiments and mean percentage changes ± SEM as compared to controls are shown.

O=C(CCCCCCC(=O)Nc1ccc(S(F)(F)(F)(F)F)cc1)NO [SF5-SAHA]
LDH release (unspecific cytotoxicity): did not induce significant increases in LDH release
